From US20020086861A1, “Fused 1,2,4- thiadiazine derivatives, their preparation and use” (priority 1998, published 2002)
Blank lines part the entries; values can stand above or below the molecule they belong to.

Legend:
[1] = target: T1, KATP-channels on pancreatic beta-cells (Homo sapiens, UniProt Q09428); settings: by an activation of KATP-channels on pancreatic beta-cells; cited from earlier work
T1 construct: host or cells: pancreatic beta-cells

obese Zucker rats = settings: cited from earlier work
BB-rats = settings: cited from earlier work

T1 sequence (Q09428 whole entry): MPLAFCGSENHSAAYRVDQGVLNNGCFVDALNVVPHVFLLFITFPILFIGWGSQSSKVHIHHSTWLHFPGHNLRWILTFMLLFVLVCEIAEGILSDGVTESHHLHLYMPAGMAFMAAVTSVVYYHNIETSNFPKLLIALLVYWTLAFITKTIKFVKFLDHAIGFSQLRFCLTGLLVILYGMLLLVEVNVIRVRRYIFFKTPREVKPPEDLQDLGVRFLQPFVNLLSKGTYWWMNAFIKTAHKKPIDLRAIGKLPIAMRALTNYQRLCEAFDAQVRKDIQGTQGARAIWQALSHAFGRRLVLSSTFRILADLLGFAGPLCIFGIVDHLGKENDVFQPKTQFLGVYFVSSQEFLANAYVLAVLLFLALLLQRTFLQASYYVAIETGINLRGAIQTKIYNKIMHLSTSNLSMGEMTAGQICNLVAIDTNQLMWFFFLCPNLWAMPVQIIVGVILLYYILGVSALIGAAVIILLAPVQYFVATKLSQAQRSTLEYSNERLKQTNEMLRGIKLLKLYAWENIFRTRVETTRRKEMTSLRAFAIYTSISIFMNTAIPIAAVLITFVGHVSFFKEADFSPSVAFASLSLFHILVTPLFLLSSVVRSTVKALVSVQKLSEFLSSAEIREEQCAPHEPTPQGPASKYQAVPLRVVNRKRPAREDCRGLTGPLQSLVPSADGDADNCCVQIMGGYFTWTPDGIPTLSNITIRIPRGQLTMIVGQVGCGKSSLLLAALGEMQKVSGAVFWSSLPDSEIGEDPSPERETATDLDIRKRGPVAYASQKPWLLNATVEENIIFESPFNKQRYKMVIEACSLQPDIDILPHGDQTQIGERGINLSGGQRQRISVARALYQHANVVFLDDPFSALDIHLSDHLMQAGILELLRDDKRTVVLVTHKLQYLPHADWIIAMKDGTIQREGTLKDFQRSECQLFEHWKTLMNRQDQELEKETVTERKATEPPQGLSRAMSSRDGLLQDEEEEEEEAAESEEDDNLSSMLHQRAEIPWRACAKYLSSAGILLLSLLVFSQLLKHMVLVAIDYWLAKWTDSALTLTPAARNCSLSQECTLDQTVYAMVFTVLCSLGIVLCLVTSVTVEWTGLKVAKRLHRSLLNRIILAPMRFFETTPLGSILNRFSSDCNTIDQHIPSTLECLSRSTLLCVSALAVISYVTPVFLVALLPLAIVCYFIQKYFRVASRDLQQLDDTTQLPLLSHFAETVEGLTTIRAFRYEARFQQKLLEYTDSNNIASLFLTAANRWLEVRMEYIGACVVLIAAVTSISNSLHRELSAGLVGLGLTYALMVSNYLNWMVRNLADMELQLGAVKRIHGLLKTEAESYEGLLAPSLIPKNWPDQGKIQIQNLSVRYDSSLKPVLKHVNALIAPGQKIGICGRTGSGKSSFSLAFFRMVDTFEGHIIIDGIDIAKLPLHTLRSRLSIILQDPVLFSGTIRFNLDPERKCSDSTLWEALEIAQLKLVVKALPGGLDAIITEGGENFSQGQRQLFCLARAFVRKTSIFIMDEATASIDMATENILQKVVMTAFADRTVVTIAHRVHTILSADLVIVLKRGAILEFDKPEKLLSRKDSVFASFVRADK
T1 sequence (Q14654 whole entry partner): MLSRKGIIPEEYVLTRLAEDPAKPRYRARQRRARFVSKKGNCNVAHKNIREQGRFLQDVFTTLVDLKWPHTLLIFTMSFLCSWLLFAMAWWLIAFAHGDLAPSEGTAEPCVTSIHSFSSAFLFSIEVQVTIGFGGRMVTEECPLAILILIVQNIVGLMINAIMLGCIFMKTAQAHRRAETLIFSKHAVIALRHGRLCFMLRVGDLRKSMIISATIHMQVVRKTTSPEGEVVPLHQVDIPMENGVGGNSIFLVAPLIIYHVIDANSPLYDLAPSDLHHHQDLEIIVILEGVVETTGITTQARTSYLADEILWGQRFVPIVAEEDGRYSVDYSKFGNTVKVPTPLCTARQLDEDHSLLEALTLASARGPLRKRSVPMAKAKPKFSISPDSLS

SMILES: CC(C)(NC1=NS(=O)(=O)c2sc(Cl)cc2N1)c1ccccc1 [Example 10, 6-Chloro-3-(1-methyl-1-phenylethyl)amino-4H-thieno[3,2-e]-1,2,4-thiadiazine 1,1-dioxide]
melting point: ~ 360 °C (dec.)

SMILES: O=S1(=O)N=C(NC2(CO)CCCC2)Nc2cc(Cl)sc21 [Example 9, 6-Chloro-3-(1-hydroxymethylcyclopentyl)amino-4H-thieno[3,2-e]-1,2,4-thiadiazine 1,1-dioxide]
melting point: 213 to 214 °C

SMILES: CC1=Nc2ccc(Cl)cc2S(=O)(=O)N1 [diazoxide, 7-chloro-3-methyl-2H-1,2,4-benzothiadiazine 1,1-dioxide]
insulin release [1]: inhibit insulin release
glucose tolerance (obese Zucker rats): improve glucose tolerance
insulin receptor binding (obese Zucker rats): increase insulin receptor binding
insulin secretion (obese Zucker rats): decrease insulin secretion
weight gain (obese Zucker rats): decrease weight gain
onset of diabetes (BB-rats): delay the onset of diabetes

SMILES: CC(C)(CO)NC1=NS(=O)(=O)c2sc(Cl)cc2N1 [Example 4, 6-Chloro-3-(2-hydroxy-1,1-dimethylethylamino)-4H-thieno[3,2-e]-1,2,4-thiadiazine 1,1-dioxide]
melting point: 224 to 226 °C

The remaining lines, values ahead:

melting point: 339 to 340 °C
SMILES: O=S1(=O)N=C(NC23CC4CC(CC(C4)C2)C3)Nc2cc(Cl)sc21 [Example 6, 3-(1-Adamantyl)amino-6-chloro-4H-thieno[3,2-e]-1,2,4-thiadiazine 1,1-dioxide]

melting point: 294 to 296 °C
SMILES: CC1(NC2=NS(=O)(=O)c3sc(Cl)cc3N2)CCC1 [Example 13, 6-Chloro-3-(1-methylcyclobutyl)amino-4H-thieno[3,2-e]-1,2,4-thiadiazine 1,1-dioxide]
